Results from US20100216767A1, “QUINAZOLINES FOR PDK1 INHIBITION” (priority 2006, published 2010).

Target: T1, PDK1 kinase (Homo sapiens, UniProt O15530)
T1 sequence (O15530 1-556): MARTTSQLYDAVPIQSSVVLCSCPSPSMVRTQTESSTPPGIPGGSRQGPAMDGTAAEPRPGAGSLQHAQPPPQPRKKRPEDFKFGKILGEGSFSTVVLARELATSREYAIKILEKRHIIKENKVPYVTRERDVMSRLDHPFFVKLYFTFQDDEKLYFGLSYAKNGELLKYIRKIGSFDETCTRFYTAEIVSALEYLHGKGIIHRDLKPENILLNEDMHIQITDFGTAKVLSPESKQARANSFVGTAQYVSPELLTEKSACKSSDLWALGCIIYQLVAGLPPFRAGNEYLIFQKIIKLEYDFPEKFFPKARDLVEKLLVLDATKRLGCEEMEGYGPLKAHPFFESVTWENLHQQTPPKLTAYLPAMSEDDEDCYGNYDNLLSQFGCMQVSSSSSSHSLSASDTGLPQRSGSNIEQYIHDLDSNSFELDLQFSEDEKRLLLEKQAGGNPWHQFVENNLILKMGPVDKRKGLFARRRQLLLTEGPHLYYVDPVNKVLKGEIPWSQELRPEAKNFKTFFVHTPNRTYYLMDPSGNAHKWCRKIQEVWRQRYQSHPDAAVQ
Experiment: PDK1 Kinase Alpha Screen Assay
Format: biochemical
Conditions: Table 1; 10 μM ATP, 50 nM PDK1-4 peptide
Experimental: Reagents/Concentrations: The PDK1-4 peptide substrate, biotin-[…]-NH2, (SEQ ID NO: 1), was purchased from the Tufts University Core Facility. The final concentration of PDK1-4 peptide substrate was 50 nM. The ATP substrate (adenosine-[…] triphosphate) was purchased from Roche Diagnostics. The final concentration of ATP substrate was 10 μM. Phospho-(Ser/Thr) PKA substrate antibody was purchased from Cell Signaling Technology. The final concentration of antibody was 0.3 mg/mL. The Alpha Screen Protein A detection kit containing donor and acceptor beads was purchased from PerkinElmer Life Sciences. The final concentration of both donor and acceptor beads was 25 μg/mL. Alpha Screen was used for detection. The biotinylated-PDK1-4 peptide was phosphorylated by PDK1 kinase using the ATP substrate. The biotinylated-PDK1-4 peptide substrate was bound to the streptavidin coated donor bead. The antibody was bound to the protein A coated acceptor bead. The antibody bound to the phosphorylated form of the biotinylated PDK-1 peptide substrate, bringing the donor and acceptor beads into close proximity. Laser irradiation of the donor bead at 680 nm generated a flow of short-lived singlet oxygen molecules. When the donor and acceptor beads were in close proximity, the reactive oxygen generated by the irradiation of the donor beads initiated a luminescence/fluorescence cascade in the acceptor beads. This process led to a highly amplified signal with output in the 530-620 nm range. Assays were carried out in 50 mM Tris, pH=7.5, 10 mM MgCl2, 0.1% BSA, 0.01% Tween-20, 2 mM dithiolthreitol, 2.5% dimethyl sulfoxide. Reactions were stopped by adding 50 mM Tris, pH=7.5, 90 mM EDTA, 0.1% BSA, 0.01% Tween-20.
Procedure: To 10 μl, of PDK1-4 peptide, […] of test compound in dimethyl sulfoxide was added. PDK1 kinase and ATP were mixed, and 10 μL of the PDK1 kinase/ATP mix was added to start the reaction. The reaction was allowed to proceed for 3-18 hours. The reactions were then stopped by adding 10 μL of the EDTA-containing stop buffer. Beads were mixed with antibody, and 25 μL of the bead/antibody mix was then added to the stopped reactions. Plates were incubated at room temperature overnight to allow for detection development before being read. The assay was run in a 384-well format plate.

Row | Structure (SMILES) | IC50
1 | C#Cc1cc2cnc(Nc3ccc(-c4nnn[nH]4)cc3)nc2cc1OC [Example 96, N-(4-(1H-tetrazol-5-yl)-phenyl)-6-ethynyl-7-methoxyquinazolin-2-amine] | < 5 µM
2 | C#Cc1cc2cnc(Nc3ccc(-n4cnnn4)cc3)nc2cc1OC [Example 97, N-(4-(1H-tetrozol-1-yl)phenyl)-6-ethynyl-7-methoxyquinazolin-2-amine] | < 5 µM
3 | C#Cc1cc2cnc(Nc3cccc(-c4nnn[nH]4)c3)nc2cc1OC [Example 98, N-(3-(1H-tetrazol-5-yl)phenyl)-6-ethynyl-7-methoxyquinazolin-2-amine] | < 5 µM
4 | C#Cc1ccc2nc(Nc3ccc(N4CCOCC4)cc3)ncc2c1Cl [Example 99, 5-chloro-6-ethynyl-N-(4-morpholinophenyl)quinazolin-2-amine] | < 5 µM
5 | c1csc(-c2ccc3nc(Nc4ccc(N5CCOCC5)cc4)ncc3c2)n1 [Example 100, N-(4-morpholinophenyl)-6-(thiazol-2-yl)quinazolin-2-amine] | < 5 µM
6 | C#Cc1cc(OC)c2nc(Nc3ccc(N4CCOCC4)cc3)ncc2c1Cl [Example 101, 5-chloro-6-ethynyl-8-methoxy-N-(4-morpholinophenyl)-quinazolin-2-amine] | < 5 µM
7 | COc1cc2nc(Nc3ccc(C(=O)N4CCOCC4)c(Cl)c3)ncc2cc1Br [Example 102, (4-(6-bromo-7-methoxy-quinazolin-2-ylamino)-2-chlorophenyl)(morpholino)-methanone] | < 5 µM
8 | C#Cc1cc2cnc(Nc3cccc(-n4cnnn4)c3)nc2cc1OC [Example 103, N-(3-(1H-tetrazol-1-yl)phenyl)-6-ethynyl-7-methoxyquinazolin-2-amine] | < 5 µM
9 | COc1cc2nc(Nc3ccc(C(=O)N4CCOCC4)c(Cl)c3)ncc2cc1-c1nccs1 [Example 104] | < 5 µM
10 | C#Cc1ccc2nc(Nc3cc(NC(C)=O)cc(NC(C)=O)c3)ncc2c1 [Example 105, N,N′-(5-(6-ethynyl-quinazolin-2-ylamino)-1,3-phenylene)diacetamide] | < 5 µM
11 | C#Cc1ccc2nc(Nc3ccc(C(=O)NC(C)C)cc3)ncc2c1Cl [Example 106, 4-(5-chloro-6-ethynyl-quinazolin-2-ylamino)-N-isopropylbenzamide] | < 5 µM
12 | C#Cc1ccc2nc(Nc3ccc(C(=O)NC4CC4)cc3)ncc2c1Cl [Example 107, 4-(5-chloro-6-ethynyl-quinazolin-2-ylamino)-N-cyclopropylbenzamide] | < 5 µM
13 | COc1ccc2nc(Nc3cc(CN(C)C)cc(NC(C)=O)c3)ncc2c1 [Example 109, N-(3-((dimethylamino)-methyl)-5-(6-methoxy-quinazolin-2-ylamino)-phenyl)acetamide] | < 5 µM
14 | COc1cncc(-c2cc(OC)c3nc(Nc4cc(CN(C)C)cc(NC(C)=O)c4)ncc3c2)n1 [Example 110, N-(3-((dimethylamino)-methyl)-5-(8-methoxy-6-(6-methoxypyrazin-2-yl)quinazolin-2-ylamino)phenyl)acetamide] | < 5 µM
15 | COc1nc(N)ncc1-c1cc(OC)c2nc(Nc3cc(CN(C)C)cc(NC(C)=O)c3)ncc2c1 [Example 111, N-(3-(6-(2-amino-4-methoxypyrimidin-5-yl)-8-methoxyquinazolin-2-ylamino)-5-((dimethyl-amino)methyl)-phenyl)-acetamide] | 5 to 10 µM
16 | COc1cc2nc(Nc3cccc(-n4cnnn4)c3)ncc2cc1-c1nccs1 [Example 112, N-(3-(1H-tetrazol-1-yl)phenyl)-7-methoxy-6-(thiazol-2-yl)quinazolin-2-amine] | < 5 µM

Row | Structure (SMILES) | IC50
17 | C#Cc1cc(OC)c2nc(Nc3ccc(C(=O)N4CCOCC4)cc3)ncc2c1Cl [Example 113, (4-(5-chloro-6-ethynyl-8-methoxyquinazolin-2-ylamino)phenyl)-(morpholino)methanone] | < 5 µM
18 | C#Cc1cc(OC)c2nc(Nc3ccc(C(=O)NC(C)C)cc3)ncc2c1Cl [Example 114, 4-(5-chloro-6-ethynyl-8-methoxyquinazolin-2-ylamino)-N-isopropyl-benzamide] | < 5 µM
19 | COc1cc(-c2nccs2)c(Cl)c2cnc(Nc3ccc(N4CCOCC4)cc3)nc12 [Example 115, 5-chloro-8-methoxy-N-(4-morpholinophenyl)-6-(thiazol-2-yl)quinazolin-2-amine] | < 5 µM
20 | COc1cc(Br)c(Cl)c2cnc(Nc3ccc(N4CCOCC4)cc3)nc12 [Example 116, 6-bromo-5-chloro-8-methoxy-N-(4-morpholinophenyl)-quinazolin-2-amine] | < 5 µM
21 | COc1cc(-c2nccs2)c(Cl)c2cnc(Nc3ccc(C(=O)N4CCOCC4)cc3)nc12 [Example 117, (4-(5-chloro-8-methoxy-6-(thiazol-2-yl)quinazolin-2-ylamino)phenyl)-(morpholino)-methanone] | < 5 µM
22 | COc1cc(Br)c(Cl)c2cnc(Nc3ccc(C(=O)N4CCOCC4)cc3)nc12 [Example 118, (4-(6-bromo-5-chloro-8-methoxyquinazolin-2-ylamino)phenyl)-(morpholino)-methanone] | < 5 µM
23 | COc1cc(-c2nccs2)c(Cl)c2cnc(Nc3ccc(C(=O)NC(C)C)cc3)nc12 [Example 119, 4-(5-chloro-8-methoxy-6-(thiazol-2-yl)quinazolin-2-ylamino)-N-isopropyl-benzamide] | < 5 µM
24 | C#Cc1cc2cnc(Nc3ccc(C(=O)N4CCOCC4)c(Cl)c3)nc2cc1OC [Example 120, (2-chloro-4-(6-ethynyl-7-methoxyquinazolin-2-ylamino)phenyl)-(morpholino)methanone] | < 5 µM
25 | C#Cc1ccc2nc(Nc3cccc(N4CCOCC4)c3)ncc2c1Cl [Example 121, 5-chloro-6-ethynyl-N-(3-morpholinophenyl)-quinazolin-2-amine] | < 5 µM
26 | COc1cc2nc(Nc3cc(CN(C)C)cc(NC(C)=O)c3)ncc2cc1-c1nccs1 [Example 122, N-(3-((dimethylamino)-methyl)-5-(7-methoxy-6-(thiazol-2-yl)quinazolin-2-ylamino)phenyl)acetamide] | < 5 µM
27 | NC(=O)c1cc(Nc2ncc3cc(Br)ccc3n2)ccc1N1CCOCC1 [Example 123, 5-(6-bromoquinazolin-2-ylamino)-2-morpholino-benzamide] | 5 to 10 µM
28 | C#Cc1ccc2nc(Nc3ccc(N4CCOCC4)c(C(N)=O)c3)ncc2c1 [Example 124, 5-(6-ethynylquinazolin-2-ylamino)-2-morpholino-benzamide] | < 5 µM
29 | C#Cc1ccc2nc(Nc3cc(CN4CCOCC4)cc(NC(C)=O)c3)ncc2c1 [Example 125, N-(3-(6-ethynylquinazolin-2-ylamino)-5-(morpholino-methyl)phenyl)acetamide] | < 5 µM
30 | CC(=O)Nc1cc(CN2CCCC2)cc(Nc2ncc3cc(-c4nccs4)ccc3n2)c1 [Example 126, N-(3-(pyrrolidin-1-ylmethyl)-5-(6-(thiazol-2-yl)quinazolin-2-ylamino)-phenyl)acetamide] | < 5 µM
31 | C#Cc1ccc2nc(Nc3cc(CN4CCCC4)cc(NC(C)=O)c3)ncc2c1 [Example 127, N-(3-(6-ethynylquinazolin-2-ylamino)-5-(pyrrolidin-1-ylmethyl)phenyl)-acetamide] | < 5 µM
32 | CC(=O)Nc1cc(CN2CCOCC2)cc(Nc2ncc3cc(Br)cc(Cl)c3n2)c1 [Example 128, N-(3-(6-bromo-8-chloro-quinazolin-2-ylamino)-5-(morpholinomethyl)-phenyl)-acetamide] | < 5 µM
